Laboratory results: patent US20140286903A1, “Substituted Purine Nucleosides, Phosphoramidate and Phosphordiamidate Derivatives for Treatment if Viral Infections” (INHIBITEX, INC., priority 2011, published 2014)
pIC50: −log10 of the molar value.

Columns and labels:
[1] = tested on: HCV replicon (Genotype 1b); assay: Luciferase genotype 1b replicon potency assay; format: cell-based, hepatitis C virus; conditions: Renilla luciferase reporter activity, 50% decrease vs untreated cells
Protocol: (§1) Further to the above Examples, representative compounds, prepared according to the examples were tested for potency in an HCV replicon assay (Genotype 1b) for activity against the virus (EC50) and toxicity to the cells (CC50).
(§2) Huh7 Replicon Cell Lines and Cell Culture Conditions: A luciferase-reporter genotype 1b subgenomic replicon cell line, and a genotype 1a full-length replicon cell line were obtained from Apath, LLC, Brooklyn, N.Y.: All cell lines were passaged twice a week by splitting 4 or 6 fold. Cells were maintained in DMEM-high glucose medium (HyClone, Logan, Utah) supplemented with 9% FBS (HyClone), 2 mM glutamine (Invitrogen, Carlsbad, Calif.), 100 U/mL PenStrep (Invitrogen). Media also contained 0.25 mg/mL of the antibiotic G-418 to maintain stable expression of the replicon (Invitrogen). Incubation was performed at 37° C. in 5% CO2 atmosphere. Replicon cell lines were used until they accumulated 15-to-18 passages, after which cells were restarted from the frozen stock. Seeding cell counts were routinely determined using an automatic Cedex HiRes cell counter (Flownomics Analytical Instruments, Madison, Wis.) or manually using INCYTO C-Chip™ Disposable Hemacytometers (Fisher Scientific, Pittsburg, Pa.).
Luciferase Genotype 1b Replicon Potency Assay. Replicon cells were seeded into white 96-well plates (Nunc/VWR) at a density of 2×10^4 cells/well in medium without G-418. A Stacker Multidrop Liquid Dispenser (MTX Lab Systems, Vienna, Va.) was employed to ensure uniform and fast cell seeding into multiple plates. 18-24 h after cell plating, inhibitors were added and cells were incubated for additional 24, 48, or 72 h (as indicated). Compounds were tested in triplicates and quadruplicates at 3× or 4× serial dilutions over a range of 0.0001-to-10 μM concentrations. HCV replication was monitored by Renilla luciferase reporter activity assay using Renilla luciferase reporter (Promega, Madison, Wis.) and a Veritas Luminometer (Turner Biosystems, Sunnyvale, Calif.). 50% and 90% inhibitory concentration (IC50 and IC90) values were calculated as the concentration of compound that results correspondingly in 50% and 90% decreases in the reporter expression as compared to untreated cells. The values were determined by non-linear regression (four-parameter sigmoidal curve fitting) analysis.

[2] = Cytotoxicity assay (CellTiter-Glo); format: cell-based; conditions: human, 72 h incubation, concentration resulting in 50% luminescent signal
Protocol: as §1, §2
Cytotoxicity Assay. Cells were seeded into 96-well plates at a density of 2×10^4 cells per well. 24 h after cell plating, 11 serial 2× compound dilutions, starting with 100 µM, were applied to the testing plates (3 repeats per compound dilution). Each testing plate was run with a “no-compound” control. Incubation with compounds was continued at 37° C. in a CO2 incubator for 72 h. To determine cell viability, the CellTiter-Glo® assay (Promega, Madison, Wis.) was performed according to the manufacturer's protocol. The compound concentration resulting in 50% luminescent signal was reported as the CC50 concentration.

[3] = Hepatitis C virus, Huh-7, Huh7 luciferase-reporter genotype 1b subgenomic replicon cells
[4] = Huh7 HCV replicon cells (genotype 1b)

SMILES: COc1nc(N)nc2c1ncn2[C@@H]1O[C@H](COP(=O)(N[C@@H](C)C(=O)OCc2ccccc2)Oc2cccc3ccccc23)[C@H](F)[C@@]1(C)O (stereo partly drawn) [Example 28, (2S)-Benzyl 2-((((2R,3S,4S,5R)-5-(2-amino-6-methoxy-9H-purin-9-yl)-3-fluoro-4-hydroxy-4-methyltetrahydrofuran-2-yl)methoxy)(naphthalen-1-yloxy)phosphorylamino)propanoate]
- pIC50 [1, 3]: < 4.40
- CC50 at 72 h [2]: 92 µM

SMILES: C[C@H](NP(=O)(OC[C@H]1O[C@@H](n2ccc(=O)[nH]c2=O)[C@](C)(O)[C@@H]1F)Oc1cccc2ccccc12)C(=O)OCC(C)(C)C (stereo partly drawn) [Example 33, (2 S)-Neopentyl 2-((((2R,3R,4S,5R)-5-(2,4-dioxo-3,4-dihydropyrimidin-1(2H)-yl)-3-fluoro-4-hydroxy-4-methyltetrahydrofuran-2-yl)methoxy)(naphthalen-1-yloxy)phosphorylamino)propanoate]
- pIC50 [1, 3]: < 4.40
- CC50 at 72 h [2]: 75 µM

SMILES: COc1nc(N)nc2c1ncn2[C@@H]1O[C@H](COP(=O)(N[C@@H](C)C(=O)OC2CCOCC2)Oc2cccc3ccccc23)[C@@H](F)[C@@]1(C)O (stereo partly drawn) [Example 19, (2S)-Tetrahydro-2H-pyran-4-yl 2-((((2R,3R,4S,5R)-5-(2-amino-6-methoxy-9H-purin-9-yl)-3-fluoro-4-hydroxy-4-methyltetrahydrofuran-2-yl)methoxy)(naphthalen-1-yloxy)phosphorylamino)propanoate]
- pIC50 [1, 3]: 5.85
- CC50 at 72 h [2]: 77 µM

SMILES: COc1nc(N)nc2c1ncn2[C@@H]1O[C@H](COP(=O)(N[C@@H](C)C(=O)OC2CCCC2)Oc2cccc3ccccc23)[C@@H](F)[C@@]1(C)O (stereo partly drawn) [Example 17, (2S)-Cyclopentyl 2-((((2R,3R,4S,5R)-5-(2-amino-6-methoxy-9H-purin-9-yl)-3-fluoro-4-hydroxy-4-methyltetrahydrofuran-2-yl)methoxy)(naphthalen-1-yloxy)phosphorylamino)propanoate]
- pIC50 [1, 3]: 6.35
- CC50 at 72 h [2]: 40 µM

SMILES: C[C@H](NP(=O)(OC[C@H]1O[C@@H](n2cnc3c(N4CCC4)nc(N)nc32)[C@](C)(O)[C@@H]1F)Oc1cccc2ccccc12)C(=O)OC1CCCCC1 (stereo partly drawn) [Example 25, (2S)-Cyclohexyl 2-((((2R,3R,4S,5R)-5-(2-amino-6-(azetidin-1-yl)-9H-purin-9-yl)-3-fluoro-4-hydroxy-4-methyltetrahydrofuran-2-yl)methoxy)(naphthalen-1-yloxy)phosphorylamino)propanoate]
- pIC50 [1, 3]: 6.02
- CC50 at 72 h [2]: 33 µM

SMILES: C[C@@]1(O)[C@H](F)[C@@H](CO)O[C@H]1n1cnc2c(N)ncnc21 [Example 8, (2R,3S,4R,5R)-2-(6-Amino-9H-purin-9-yl)-4-fluoro-5-(hydroxymethyl)-3-methyltetrahydrofuran-3-ol]
- pIC50 [1, 3]: < 4.00
- CC50 at 72 h [2, 4]: > 100 µM

SMILES: COc1nc(N)nc2c1ncn2[C@@H]1O[C@H](COP(=O)(N[C@H](C(=O)OCc2ccccc2)C(C)C)Oc2cccc3ccccc23)[C@@H](F)[C@@]1(C)O (stereo partly drawn) [Example 26, (2S)-Benzyl 2-((((2R,3R,4S,5R)-5-(2-amino-6-methoxy-9H-purin-9-yl)-3-fluoro-4-hydroxy-4-methyltetrahydrofuran-2-yl)methoxy)(naphthalen-1-yloxy)phosphorylamino)-3-methylbutanoate]
- pIC50 [1, 3]: 5.40
- CC50 at 72 h [2]: 14 µM

SMILES: COc1nc(N)nc2c1ncn2[C@@H]1O[C@H](COP(=O)(N[C@H](C(=O)OCc2ccccc2)C(C)C)Oc2cccc3ccccc23)[C@H](F)[C@@]1(C)O (stereo partly drawn) [Example 30, (2S)-Benzyl 2-((((2R,3S,4S,5R)-5-(2-amino-6-methoxy-9H-purin-9-yl)-3-fluoro-4-hydroxy-4-methyltetrahydrofuran-2-yl)methoxy)(naphthalen-1-yloxy)phosphorylamino)-3-methylbutanoate]
- pIC50 [1, 3]: 4.96
- CC50 at 72 h [2]: 19 µM

SMILES: COc1nc(N)nc2c1ncn2[C@@H]1O[C@H](CO)[C@H](F)[C@@]1(C)O [Example 11, (2R,3S,4S,5R)-2-(2-Amino-6-methoxy-9H-purin-9-yl)-4-fluoro-5-(hydroxymethyl)-3-methyltetrahydrofuran-3-ol]
- pIC50 [1, 3]: < 4.00
- CC50 at 72 h [2, 4]: > 100 µM

SMILES: COc1nc(N)nc2c1ncn2[C@@H]1O[C@H](COP(=O)(N[C@@H](C)C(=O)OCCC(C)(C)C)Oc2cccc3ccccc23)[C@@H](F)[C@@]1(C)O (stereo partly drawn) [Example 15, (2S)-3,3-Dimethylbutyl 2-((((2R,3R,4S,5R)-5-(2-amino-6-methoxy-9H-purin-9-yl)-3-fluoro-4-hydroxy-4-methyltetrahydrofuran-2-yl)methoxy)(naphthalen-1-yloxy)phosphorylamino)propanoate]
- pIC50 [1, 3]: 6.30
- CC50 at 72 h [2]: 21 µM

SMILES: C[C@@]1(O)[C@H](F)[C@@H](CO)O[C@H]1n1cnc2c(N3CCC3)nc(N)nc21 [Example 7, (2R,3S,4R,5R)-2-(2-Amino-6-(azetidin-1-yl)-9H-purin-9-yl)-4-fluoro-5-(hydroxymethyl)-3-methyltetrahydrofuran-3-ol]
- pIC50 [1, 3]: 4.62
- pIC50 ([1]; Huh7 luciferase-reporter genotype 1b subgenomic replicon cells): < 4.40
- CC50 at 72 h [2, 4]: > 100 µM

SMILES: C[C@H](NP(=O)(OC[C@H]1O[C@@H](n2ccc(N)nc2=O)[C@](C)(O)[C@@H]1F)Oc1cccc2ccccc12)C(=O)OCC(C)(C)C (stereo partly drawn) [Example 32, (2S)-Neopentyl 2-((((2R,3R,4S,5R)-5-(4-amino-2-oxopyrimidin-1(2H)-yl)-3-fluoro-4-hydroxy-4-methyltetrahydrofuran-2-yl)methoxy)(naphthalen-1-yloxy)phosphorylamino)propanoate]
- pIC50 [1, 3]: < 4.40
- CC50 at 72 h [2]: > 100 µM

SMILES: CCOc1nc(N)nc2c1ncn2[C@@H]1O[C@H](COP(=O)(N[C@@H](C)C(=O)OC2CCCCC2)Oc2cccc3ccccc23)[C@@H](F)[C@@]1(C)O (stereo partly drawn) [Example 22, (2S)-Cyclohexyl 2-((((2R,3R,4S,5R)-5-(2-amino-6-ethoxy-9H-purin-9-yl)-3-fluoro-4-hydroxy-4-methyltetrahydrofuran-2-yl)methoxy)(naphthalen-1-yloxy)phosphorylamino)propanoate]
- pIC50 [1, 3]: 6.14
- CC50 at 72 h [2]: 16 µM

SMILES: C[C@@]1(O)[C@H](F)[C@@H](CO)O[C@H]1n1cnc2c(=O)[nH]c(N)nc21 [Example 3, 2-amino-9-((2R,3S,4R,5R)-4-fluoro-3-hydroxy-5-(hydroxymethyl)-3-methyltetrahydrofuran-2-yl)-1H-purin-6(9H)-one]
- pIC50 [1, 3]: < 4.00
- CC50 at 72 h [2, 4]: > 100 µM

SMILES: C[C@H](NP(=O)(OC[C@H]1O[C@@H](n2cnc3c(N)ncnc32)[C@](C)(O)[C@@H]1F)Oc1cccc2ccccc12)C(=O)OCC(C)(C)C (stereo partly drawn) [Example 31, (2S)-Neopentyl 2-((((2R,3R,4S,5R)-5-(6-amino-9H-purin-9-yl)-3-fluoro-4-hydroxy-4-methyltetrahydrofuran-2-yl)methoxy)(naphthalen-1-yloxy)phosphorylamino)propanoate]
- pIC50 [1, 3]: 4.96
- CC50 at 72 h [2]: 31 µM

SMILES: COc1nc(N)nc2c1ncn2[C@@H]1O[C@H](COP(=O)(N[C@@H](C)C(=O)OC2CCCCC2)Oc2cccc3ccccc23)[C@@H](F)[C@@]1(C)O (stereo partly drawn) [Example 18, (2S)-Cyclohexyl 2-((((2R,3R,4S,5R)-5-(2-amino-6-methoxy-9H-purin-9-yl)-3-fluoro-4-hydroxy-4-methyltetrahydrofuran-2-yl)methoxy)(naphthalen-1-yloxy)phosphorylamino)propanoate]
- pIC50 [1, 3]: 5.89
- CC50 at 72 h [2]: 30 µM

SMILES: CCOc1nc(N)nc2c1ncn2[C@@H]1O[C@H](CO)[C@@H](F)[C@@]1(C)O [Example 6, (2R,3S,4R,5R)-2-(2-amino-6-ethoxy-9H-purin-9-yl)-4-fluoro-5-(hydroxymethyl)-3-methyltetrahydrofuran-3-ol]
- pIC50 [1, 3]: < 4.00
- CC50 at 72 h [2, 4]: > 100 µM

SMILES: COc1nc(N)nc2c1ncn2[C@H]1O[C@H](CO)[C@@H](F)[C@]1(C)O [Example 4, (2S,3R,4R,5R)-2-(2-Amino-6-methoxy-9H-purin-9-yl)-4-fluoro-5-(hydroxymethyl)-3-methyltetrahydrofuran-3-ol]
- pIC50 [1, 3]: < 4.00
- CC50 at 72 h [2, 4]: > 100 µM

SMILES: C[C@@]1(O)[C@H](F)[C@@H](CO)O[C@H]1n1ccc(=O)[nH]c1=O [Example 10, 1-((2R,3S,4R,5R)-4-Fluoro-3-hydroxy-5-(hydroxymethyl)-3-methyltetrahydrofuran-2-yl)pyrimidine-2,4(1H,3H)-dione]
- pIC50 [1, 3]: 4.64
- CC50 at 72 h [2, 4]: > 100 µM
